The IC50 is the point on the concentration scale where inhibition reaches its midpoint.

The first experiment has as its system YAP/TAZ-TEAD transcription. In words: Reporter gene assay for measuring the inhibition of YAP/TAZ-TEAD transcription (TEAD-responsive element luciferase reporter in Hek293T cells). In kind it is cell-based. The conditions noted are these: Hek293T cells transiently transfected with TEAD-responsive element luciferase reporter; 24 hours incubation. The gist of the method: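 Hek293T cells transiently transfected with a TEAD-responsive element luciferase reporter, plated onto pre-diluted compounds and incubated 24 h at 37 °C/5% CO2. Luminescence read after SteadyLite addition; % inhibition from RLU relative to vehicle (0%) and a positive control inhibitor (100%), giving IC50.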
(In general: In a reporter assay the amount or activity of a reporter protein is the signal.)
`C=CC(=O)NCC1Cc2c(CC(=O)O)cccc2N(c2ccc(C(F)(F)F)cc2)C1` (stereo not drawn) [Cpd. No. 161, 2-(3-(acrylamidomethyl)-1-(4-(trifluoromethyl)phenyl)-1,2,3,4-tetrahydroquinolin-5-yl)acetic acid] had an IC50 of 1 to 20 µM.
`FC(F)(F)c1ccc(N2CC(C3CC(Br)=NO3)Cc3ccccc32)cc1` (single isomer, unassigned) [Cpd. No. 194(Dia2)-En1, 3-bromo-5-(1-(4-(trifluoromethyl)phenyl)-1,2,3,4-tetrahydroquinolin-3-yl)-4,5-dihydroisoxazole]: the IC50 fell in the range of 1 to 20 µM.
`OCCNC1Cc2ccccc2N(c2ccc(C(F)(F)F)cc2)C1` (single isomer, unassigned) [043-En2, (R)- or (S)-2-((1-(4-(trifluoromethyl)phenyl)-1,2,3,4-tetrahydroquinolin-3-yl)amino)ethan-1-ol] displayed an IC50 of less than 1 µM.

Still in this experiment, the particulars now being: Homo sapiens, HEK-293T, 24 h, Hek293T cells transiently transfected with TEAD-responsive element luciferase reporter; 24 hours incubation.
In the case of `CCC(=O)NC1Cc2c(Cc3cccnc3)cccc2N(c2ccc(C(F)(F)F)cc2)C1` (stereo not drawn) [compound 061, N-(5-(pyridin-3-ylmethyl)-1-(4-(trifluoromethyl)phenyl)-1,2,3,4-tetrahydroquinolin-3-yl)propionamide], the IC50 was 1 to 20 µM.
The same measure, in the same setting: to `C=CC(=O)NC1Cc2ccccc2N(CC2CCCCC2)C1` (stereo not drawn) [Cpd. No. 175, N-(1-(cyclohexylmethyl)-1,2,3,4-tetrahydroquinolin-3-yl)acrylamide] belongs less than 1 µM.
The compound `OCCCNC1Cc2ccccc2N(c2ccc(C(F)(F)F)cc2)C1` (stereo not drawn) [compound 045, 3-((1-(4-(trifluoromethyl)phenyl)-1,2,3,4-tetrahydroquinolin-3-yl)amino)propan-1-ol] returned an IC50 of 1 to 20 µM.
On the same count and under the same terms, to `O=C(O)CCNC1Cc2ccccc2N(c2ccc(C(F)(F)F)cc2)C1` (stereo not drawn) [compound 046, 3-((1-(4-(trifluoromethyl)phenyl)-1,2,3,4-tetrahydroquinolin-3-yl)amino)propanoic acid] belongs less than 1 µM; to `C=CC(=O)NC1Cc2c(Cc3ccccc3)cccc2N(c2ccc(C(F)(F)F)cc2)C1` (stereo not drawn) [compound 066, N-(5-benzyl-1-(4-(trifluoromethyl)phenyl)-1,2,3,4-tetrahydroquinolin-3-yl)acrylamide], less than 1 µM; to `C=CC(=O)NCC1CCc2ccccc2N1Cc1ccc(C(F)(F)F)cc1` (stereo not drawn) [compound 189, N-((1-(4-(trifluoromethyl)benzyl)-1,2,3,4-tetrahydroquinolin-2-yl)methyl)acrylamide], less than 1 µM.
The same measure, in the same setting: to `C=CC(=O)NCC1Cc2c(Cc3ccccc3)cccc2N(c2ccc(C(F)(F)F)cc2)C1` (stereo not drawn) [compound 129, N-((5-benzyl-1-(4-(trifluoromethyl)phenyl)-1,2,3,4-tetrahydroquinolin-3-yl)methyl)acrylamide] belongs less than 1 µM; to `C=CC(=O)NC1Cc2ccccc2N(C2CCCCC2)C1` (stereo not drawn) [compound 013, N-(1-cyclohexyl-1,2,3,4-tetrahydroquinolin-3-yl)acrylamide], less than 1 µM; to `C=CC(=O)NCC1Cc2ccccc2N(c2ccc(C(C)C)cc2)C1` (stereo not drawn) [compound 087, N-((1-(4-isopropylphenyl)-1,2,3,4-tetrahydroquinolin-3-yl)methyl)acrylamide], less than 1 µM.
Still for that read-out and setting: next, `C=CC(=O)NCC1Cc2ccccc2N(C2CCC(F)(F)CC2)C1` (stereo not drawn) [compound 145, N-((1-(4,4-difluorocyclohexyl)-1,2,3,4-tetrahydroquinolin-3-yl)methyl)acrylamide]: less than 1 µM; `C=CC(=O)NC1Cc2cc(C)ccc2N(c2ccc(C(F)(F)F)cc2)C1` (stereo not drawn) [compound 065, N-(6-methyl-1-(4-(trifluoromethyl)phenyl)-1,2,3,4-tetrahydroquinolin-3-yl)acrylamide]: less than 1 µM.
`C=CC(=O)NCC1Cc2ccccc2N(C(=O)c2ccccc2)C1` (stereo not drawn) [compound 177, N-((1-benzoyl-1,2,3,4-tetrahydroquinolin-3-yl)methyl)acrylamide] returned an IC50 of less than 1 µM.
Compound `CN(C)C/C=C/C(=O)NCC1Cc2ccccc2N(c2ccc(C(F)(F)F)cc2)C1` (stereo not drawn) [compound 120, (E)-4-(dimethylamino)-N-((1-(4-(trifluoromethyl)phenyl)-1,2,3,4-tetrahydroquinolin-3-yl)methyl)but-2-enamide] had an IC50 of less than 1 µM.
Still for that read-out and setting: next, `C=CC(=O)NC1Cc2ccccc2N(c2ccc(C3CCCCC3)cc2)C1` (stereo not drawn) [compound 019, N-(1-(4-cyclohexylphenyl)-1,2,3,4-tetrahydroquinolin-3-yl)acrylamide]: less than 1 µM; `C=CC(=O)NC1Cc2ccccc2N(c2ccc(C(F)F)cc2)C1` (stereo not drawn) [compound 020, N-(1-(4-(difluoromethyl)phenyl)-1,2,3,4-tetrahydroquinolin-3-yl)acrylamide]: less than 1 µM; `C=CC(=O)NCC1Cc2ccccc2N(c2ccc(S(F)(F)(F)(F)F)cc2)C1` (stereo not drawn) [compound 117, N-((1-(4-(pentafluoro-λ^6-sulfaneyl)phenyl)-1,2,3,4-tetrahydroquinolin-3-yl)methyl)acrylamide]: less than 1 µM.
Still for that read-out and setting: to `C=CC(=O)NCC1Cc2ccccc2N(c2ccc(C(F)(F)F)nc2)C1` (stereo not drawn) [compound 094, N-((1-(6-(trifluoromethyl)pyridin-3-yl)-1,2,3,4-tetrahydroquinolin-3-yl)methyl)acrylamide] belongs less than 1 µM; to `C=CC(=O)NC1Cc2ccccc2N(c2ccc(F)c(F)c2)C1` (stereo not drawn) [compound 018, N-(1-(3,4-difluorophenyl)-1,2,3,4-tetrahydroquinolin-3-yl)acrylamide], less than 1 µM.
On the same count and under the same terms, next, `C=CC(=O)NC1Cc2ccccc2N(c2cccc(C(C)C)c2)C1` (stereo not drawn) [compound 005, N-(1-(3-isopropylphenyl)-1,2,3,4-tetrahydroquinolin-3-yl)acrylamide]: less than 1 µM; `C=CC(=O)NC1Cc2ccccc2N(c2cccc(C(F)(F)F)c2)C1` (stereo not drawn) [compound 003, N-(1-(3-(trifluoromethyl)phenyl)-1,2,3,4-tetrahydroquinolin-3-yl)acrylamide]: less than 1 µM.
Consider `C=CC(=O)NC1Cc2ccccc2N(c2ccc(C)cc2C)C1` (stereo not drawn) [compound 034, N-(1-(2,4-dimethylphenyl)-1,2,3,4-tetrahydroquinolin-3-yl)acrylamide], for which the IC50 was less than 1 µM.
The same measure, in the same setting: next, `N#CCNC1Cc2ccccc2N(c2ccc(C(F)(F)F)cc2)C1` (stereo not drawn) [compound 054, 2-((1-(4-(trifluoromethyl)phenyl)-1,2,3,4-tetrahydroquinolin-3-yl)amino)acetonitrile]: 1 to 20 µM.
In turn, `C=CC(=O)NCC1Cc2ccccc2N(c2ccnc(C(F)(F)F)c2)C1` (stereo not drawn) [compound 096, N-((1-(2-(trifluoromethyl)pyridin-4-yl)-1,2,3,4-tetrahydroquinolin-3-yl)methyl)acrylamide] came in with an IC50 of less than 1 µM.
As for `CCC(=O)NC1Cc2c(Nc3cccnc3)cccc2N(c2ccc(C(F)(F)F)cc2)C1` (stereo not drawn) [compound 072, N-(5-(pyridin-3-ylamino)-1-(4-(trifluoromethyl)phenyl)-1,2,3,4-tetrahydroquinolin-3-yl)propionamide], the 50% inhibitory concentration (IC50) is 1 to 20 µM.
Same read-out and setting: next, `C=CC(=O)NCC1Cc2ccccc2N(C2CCCCC2)C1` (stereo not drawn) [compound 118, N-((1-cyclohexyl-1,2,3,4-tetrahydroquinolin-3-yl)methyl)acrylamide]: less than 1 µM; `C=CC(=O)NC1Cc2c(C(=O)O)cccc2N(c2ccc(C(F)(F)F)cc2)C1` (stereo not drawn) [compound 079, 3-acrylamido-1-(4-(trifluoromethyl)phenyl)-1,2,3,4-tetrahydroquinoline-5-carboxylic acid]: less than 1 µM.
`C=CC(=O)NC1Cc2c(C(=O)NS(C)(=O)=O)cccc2N(c2ccc(C(F)(F)F)cc2)C1` (stereo not drawn) [compound 160, 3-acrylamido-N-(methylsulfonyl)-1-(4-(trifluoromethyl)phenyl)-1,2,3,4-tetrahydroquinoline-5-carboxamide] showed an IC50 greater than 20 µM.
Consider `C=CC(=O)NC1Cc2ccccc2N(c2ccc(C(F)(F)F)cc2)C1` (single isomer, unassigned) [001-En1], for which the IC50 is less than 1 µM.
On the same count and under the same terms, next, `C=CC(=O)NC1Cc2ccccc2N(c2ccccc2)C1` (stereo not drawn) [compound 002, N-(1-phenyl-1,2,3,4-tetrahydroquinolin-3-yl)acrylamide]: less than 1 µM; `C=CC(=O)NCC1Cc2c(C(=O)NS(=O)(=O)C3CC3)cccc2N(c2ccc(C(F)(F)F)cc2)C1` (stereo not drawn) [Cpd. No. 158, 3-(acrylamidomethyl)—N-(cyclopropylsulfonyl)-1-(4-(trifluoromethyl)phenyl)-1,2,3,4-tetrahydroquinoline-5-carboxamide]: greater than 20 µM.
Same read-out and setting: next, `C=CC(=O)NC1Cc2ccccc2N(c2ccc(C(C)C)cc2)C1` (stereo not drawn) [compound 004, N-(1-(4-isopropylphenyl)-1,2,3,4-tetrahydroquinolin-3-yl)acrylamide]: less than 1 µM; `C=CC(=O)NCC1Cc2cc(OC)ccc2N(c2ccc(C(F)(F)F)cc2)C1` (stereo not drawn) [compound 131, N-((6-methoxy-1-(4-(trifluoromethyl)phenyl)-1,2,3,4-tetrahydroquinolin-3-yl)methyl)acrylamide]: less than 1 µM.
Same read-out and setting: next, `C=CC(=O)NC1Cc2c(Cc3cccc(C#N)c3)cccc2N(c2ccc(C(F)(F)F)cc2)C1` (stereo not drawn) [compound 062, N-(5-(3-cyanobenzyl)-1-(4-(trifluoromethyl)phenyl)-1,2,3,4-tetrahydroquinolin-3-yl)acrylamide]: less than 1 µM.
In turn, `C#CC(=O)NC1Cc2ccccc2N(c2ccc(C(F)(F)F)cc2)C1` (stereo not drawn) [compound 040, N-(1-(4-(trifluoromethyl)phenyl)-1,2,3,4-tetrahydroquinolin-3-yl)propiolamide] showed an IC50 of less than 1 µM.
Consider `CN(C)C/C=C/C(=O)NC1Cc2ccccc2N(c2ccc(C(F)(F)F)cc2)C1` (stereo not drawn) [compound 041, (E)-4-(dimethylamino)-N-(1-(4-(trifluoromethyl)phenyl)-1,2,3,4-tetrahydroquinolin-3-yl)but-2-enamide], for which the IC50 lay in the range of 1 to 20 µM.
In turn, `C=CC(=O)NCC1Cc2ccccc2N(c2cccc(F)c2)C1` (stereo not drawn) [compound 108, N-((1-(3-fluorophenyl)-1,2,3,4-tetrahydroquinolin-3-yl)methyl)acrylamide] had an IC50 of less than 1 µM.

The values are drawn from patent US20240025856A1, “1,2,3,4-TETRAHYDROQUINOLINE DERIVATIVES AS INHIBITORS OF THE YAP/TAZ-TEAD ACTIVATION FOR TREATING CANCER” (KATHOLIEKE UNIVERSITEIT LEUVEN, priority 2020, published 2024).
